Measurements published in patent US20220241409A1, “WATER SOLUBLE ADJUVANT AND COMPOSITION CONTAINING SAME” (Sumitomo Dainippon Pharma Co., Ltd., priority 2019, published 2022).

Columns and labels:
Antigen-Specific CTL = assay: Action of anti-PD-1 antibody in immune response of antigen-specific CTL for peptide and tumor cell (Test 13); type: in vivo, mouse; details: splenocyte of mice receiving vaccine b with Example 2 (325 ng per body, twice); antibody 37.5 μg/mL; culture with tumor cells and Peptide SEQ ID No. 1 about three days
Protocol: Vaccine b prepared like Test 8 was injected to a HLA-A*02:01 transgenic mouse intradermally at the tail base area in an amount for administering 300 μg of Compound of formula 4 per body and 225 μg of Peptide SEQ ID No. 3 per body. Or, a vaccine prepared by adding the compound prepared in Example 2 to vaccine b was injected to a HLA-A*02:01 transgenic mouse intradermally at the tail base area in an amount for administering 300 μg of Compound of formula 4 per body, 225 μg of Peptide SEQ ID No. 3 per body, and 325 ng of the compound prepared in Example 2 per body. The administrations were done twice, which had one week interval. One week after the final administration, the mice were sacrificed with CO2 gas, and then spleens removed from the mice. A splenocyte suspension was prepared from the spleens with CTM. And, like Test 11, Peptide SEQ ID No. 1 was pulsed to a part of the splenocyte, and the cell was mixed with LLC-HHD-WT1 tumor cell. To the mixed cells was added an isotype control antibody (Rat IgG2ax, BD Pharmingen) or anti-PD-1 antibody (clone 29F.1A12, Biolegend) at a final concentration of 37.5 μg/mL, and the mixture was cultured at 37° C. under an atmosphere of 5% CO2 for about three days. The concentration of mouse IFN-γ in the culture supernatant was measured with an ELISA kit.

[1] = tested on: HLA-A*02:01/HLA-DRB1*01:01 transgenic mouse; assay: In vivo adjuvant activity, helper T-cell induction with vaccine d, IFNγ ELISPOT (Test 10); details: 3.25 ng per body added to vaccine d versus no compound; twice, one week interval
Protocol: The in vivo adjuvant activity of the compound prepared in Example 3 was evaluated in the following procedure. To a cocktail vaccine comprising Compound SEQ ID No. 1 prepared in Reference example 1 and Peptide SEQ ID No. 4 prepared in Reference example 4 with a preliminarily-emulsified composition (hereinafter, referred to as “vaccine d”) was added the compound prepared in Example 3 to prepare a vaccine. The vaccine was administered to a HLA-A*02:01/HLA-DRB1*01:01 transgenic mouse (C57BL/6CrHLA-A2.1DR1), and the adjuvant activity of the vaccine was evaluated by the method of testing antigen-specific helper T-cell induction. Peptide SEQ ID No. 4 is a helper peptide derived from HLA-DRB1*01:01-restricted WT1 protein.
Specifically, Peptide SEQ ID No. 1 and Peptide SEQ ID No. 4 were dissolved in DMSO, and then diluted with water for injection to concentrations of Peptide SEQ ID No. 1 of 0.9 mg/mL and Peptide SEQ ID No. 4 of 1.8 mg/mL. The diluted peptide solution was mixed and emulsified with an equal volume of a preliminarily-emulsified composition to prepare vaccine d. Vaccine d was injected to mice intradermally at the tail base area in an amount for administering 180 μg of Peptide SEQ ID No. 1 per body and 360 μg of Peptide SEQ ID No. 4 per body. […] Then, after removal of the supernatant from the wells, stained spots on the ELISPOT plate were counted.

[2] = tested on: HLA-A*02:01 transgenic mouse; assay: In vivo adjuvant activity, CTL induction with vaccine c, IFNγ ELISPOT (Test 9); details: 32.5 ng per body added to vaccine c versus no compound; twice, one week interval
Protocol: The in vivo adjuvant activity of the compounds prepared in Example 3 was evaluated in the following procedure. To a vaccine comprising Peptide SEQ ID No. 1 prepared in Reference example 1 with a preliminarily-emulsified composition (hereinafter, referred to as “vaccine c”) was added the compound prepared in Example 3 to prepare a vaccine. The vaccine was administered to a HLA-A*02:01 transgenic mouse, and the adjuvant activity of the vaccine was evaluated by the method of testing antigen-specific CTL induction.
Specifically, Peptide SEQ ID No. 1 was dissolved in DMSO, and then diluted with water for injection to concentrations of Peptide SEQ ID No. 1 of 2 mg/mL. The diluted peptide solution was mixed and emulsified with an equal volume of a preliminarily-emulsified composition to prepare vaccine c. Vaccine c was injected to mice intradermally at the tail base area in an amount for administering 200 μg of Peptide SEQ ID No. 1 per body. Or, in the step of preparing vaccine c, the compound prepared in Example 3 was added to the diluted peptide solution to prepare a vaccine, and the prepared vaccine was injected to mice intradermally at the tail base area in an amount for administering 200 μg of Peptide SEQ ID No. 1 per body, and 32.5 ng of the compound prepared in Example 3 per body. […] Then, after removal of the supernatant from the wells, stained spots on the ELISPOT plate were counted.

SMILES: CCCCOc1nc(N)c2[nH]c(=O)n(Cc3ccc(CN(C)CCOCCOCCOCCOCCO)nc3)c2n1 [Example 2, 6-amino-2-butoxy-9-{[6-(16-hydroxy-2-methyl-5,8,11,14-tetraoxa-2-azahexadecan-1-yl)pyridin-3-yl]methyl}-7,9-dihydro-8H-purin-8-one-trifluoroacetate]
- amount of IFN-γ produced from the CTL with anti-PD-1 antibody relative to isotype control antibody (Antigen-Specific CTL): 4 times

SMILES: CCCCOc1nc(N)c2[nH]c(=O)n(Cc3ccc(CN(C)CCOCCOCCOCCOCCO)cc3)c2n1 [Example 3, 6-amino-2-butoxy-9-{[4-(16-hydroxy-2-methyl-5,8,11,14-tetraoxa-2-azahexadecan-1-yl)phenyl]methyl}-7,9-dihydro-8H-purin-8-one]
- T-cell counts responsive to Peptide SEQ ID No. 4 (helper T-cell) [1]: more
- CTL counts responsive to Peptide of SEQ ID No. 1 [2]: more
